Reference: article PMC8329300, “X-ray crystallography reveals molecular recognition mechanism for sugar binding in a melibiose transporter MelB” (Communications Biology, 2021)
Where “and” joins values, the source holds several entries; their conditions need not be identical. Identical values can stand only once.

Tests used:
WT MelBSt = molecular target: T1, WT MelBSt (Salmonella typhimurium, UniProt P30878); details: cited from earlier work
T1 construct: Cys scanning mutagenesis for the full-length MelBSt; His10 (C); made in house; host or cells: E. coli DW2
T1 sequence (P30878 whole entry): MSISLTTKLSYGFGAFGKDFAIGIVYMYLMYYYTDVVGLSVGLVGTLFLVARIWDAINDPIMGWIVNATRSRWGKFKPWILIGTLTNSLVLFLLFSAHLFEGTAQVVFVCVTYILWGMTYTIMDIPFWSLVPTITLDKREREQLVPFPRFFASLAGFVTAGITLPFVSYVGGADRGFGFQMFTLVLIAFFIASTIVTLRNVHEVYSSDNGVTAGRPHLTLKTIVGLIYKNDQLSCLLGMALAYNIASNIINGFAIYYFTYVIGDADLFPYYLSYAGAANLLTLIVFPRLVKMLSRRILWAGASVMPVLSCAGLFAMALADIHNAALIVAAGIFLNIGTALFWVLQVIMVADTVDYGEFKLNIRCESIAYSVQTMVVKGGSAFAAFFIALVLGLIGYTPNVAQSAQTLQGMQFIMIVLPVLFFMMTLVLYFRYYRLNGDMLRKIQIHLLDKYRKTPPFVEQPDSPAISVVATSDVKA

D59C MelBSt = molecular target: T2, D59C MelBSt (Salmonella typhimurium, UniProt P30878, D59C); experiment: Trp→dansyl galactoside (D2G) FRET time trace and IC50 of D2G displacement (D59C); assay type: binding
T2 construct: Cys scanning mutagenesis for the full-length MelBSt; His10 (C); made in house; host or cells: E. coli DW2
T2 sequence (P30878 whole entry D59C): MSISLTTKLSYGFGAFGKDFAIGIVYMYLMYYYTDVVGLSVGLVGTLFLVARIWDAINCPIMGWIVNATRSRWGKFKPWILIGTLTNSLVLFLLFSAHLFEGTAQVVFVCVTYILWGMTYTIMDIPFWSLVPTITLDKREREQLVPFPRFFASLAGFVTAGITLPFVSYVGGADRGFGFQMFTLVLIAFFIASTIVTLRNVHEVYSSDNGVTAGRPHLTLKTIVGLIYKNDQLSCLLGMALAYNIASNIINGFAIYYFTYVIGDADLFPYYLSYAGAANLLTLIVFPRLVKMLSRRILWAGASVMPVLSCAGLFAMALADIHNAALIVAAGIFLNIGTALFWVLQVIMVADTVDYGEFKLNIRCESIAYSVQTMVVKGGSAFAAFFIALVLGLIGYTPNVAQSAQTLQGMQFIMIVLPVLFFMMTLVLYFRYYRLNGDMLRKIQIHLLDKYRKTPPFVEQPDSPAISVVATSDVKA
Procedure: Fig. 1 Functional characterizations. a [^3H] Melibiose transport time course with intact cells. […] Inset, melibiose fermentation assay. Transformants with DW2 strain were plated on MacConkey agar plates containing 30 mM melibiose as the sole carbohydrate source and pH sensor neutral red, and incubated at 37 °C for 16–18 h before imaging. Number of tests = 3, from different batch of cells or duplicate measurements from same batch of sample. b Ligand binding by Trp→dansyl galactoside (D^2G) FRET assay. Purified proteins at 1 μM concentration in 20 mM Tris-HCl, pH 7.5, 100 mM CholCl, 10% glycerol, and 0.03% UDM were subjected to steady-state fluorescence measurements as described in Methods. On the time-trace, 1.8 μL of 1 mM D^2G at 10 μM was added into 180 μL of protein solutions at 1-min point, followed by supplying 10 μL of 5 mM DDMB or 5 mM α-NPG to displace the bound D^2G. For testing Na^+ or Li^+ binding, they are added into the solution before displacement with the second sugar. The structure of DDMB or α-NPG is shown in a chair form, and the carbon positions are labeled. Glycosidic bonds are indicated by arrows. Both are α-galactosides containing a substituent at the anomeric carbon-1. The data were from duplicate measurements.
Steady-state fluorescence measurements were performed with an AMINCO-Bowman series 2 spectrometer with purified MelBSt at 1 μM in 20 mM Tris-HCl, pH 7.5, 100 mM CholCl, 10% glycerol, 0.03% UDM. Using an excitation wavelength at 290 nm, the emission intensity was recorded at 490 nm. On a time-trace, D^2G, NaCl or LiCl, then DDMB or α-NPG, were sequentially added into the protein solutions at a 1 min-interval. […] An identical volume of water was used for the control. The decrease in intensity after each addition of DDMB or α-NPG was corrected by the dilution effect and plotted as a function of the accumulated α-NPG concentrations or estimated DDMB concentrations. The 50% inhibitory concentration (IC50) was determined by fitting a hyperbolic function to the data (OriginPro 2020b). The final concentration of each detergent is estimated to be 234 μM, which is less than their CMC value for (DDMB, 295 μM).
Supplementary Figure 2. Determination of DDMB binding affinity to MelBSt. (a) Titration with DDMB or a-NPG. MelBSt in 20 mM Tris-HCl, pH 7.5, 100 mM CholCl, 10% glycerol, 0.03% UDM without (1) or with 100 mM NaCl (2) were added with D2G at 10 μM at 1-min time point as indicated by triangle symbols on the Trp®dansyl FRET time trace. Starting at the 2-min of time point, DDMB or a-NPG solution was supplemented consecutively at a 1-min interval into MelBSt solution till no change in fluorescence intensity reached as indicated in star symbols. DDM and UDM were used as negative controls. 1% DDM or UDM was titrated into the mixture, The […]
At 2-min time point, additions of galactosides were colored in pink, a-NPG in yellow, UDM in blue, DDM in light blue, water in gray traces, respectively. (b) IC50 determination. The intensity decrease at each titration were corrected by the dilution effect, and plotted as a function of the accumulated DDMB or α-NPG concentration. The 50% inhibitory concentration (IC50) was determined by fitting the data to a hyperbolic function (OriginPro 2020b). Results are presented in […]
(1 picture or pasted object on this page, not shown here)

## CN(C)c1cccc2c(S(=O)(=O)NCCS[C@@H]3O[C@H](CO)[C@H](O)[C@H](O)[C@H]3O)cccc12 [D^2G, 2′-(N-dansyl)aminoalkyl-1-thio-β-D-galactopyranoside]
WT MelBSt
  Kd: 10 µM
D59C MelBSt; D59C MelBSt mutant H+, Time 1.58333
  Trp to D2G FRET signal, Test: 1.236 and 1.275
D59C MelBSt; D59C MelBSt mutant H+, Time 1.6
  Trp to D2G FRET signal, Test: 1.234 and 1.287
D59C MelBSt; D59C MelBSt mutant H+, Time 1.61667
  Trp to D2G FRET signal, Test: 1.243 and 1.289
D59C MelBSt; D59C MelBSt mutant H+, Time 1.63333
  Trp to D2G FRET signal, Test: 1.234 and 1.283
D59C MelBSt; D59C MelBSt mutant H+, Time 1.65
  Trp to D2G FRET signal, Test: 1.232 and 1.292
D59C MelBSt; D59C MelBSt mutant H+, Time 1.66667
  Trp to D2G FRET signal, Test: 1.262 and 1.286
D59C MelBSt; D59C MelBSt mutant H+, Time 1.68333
  Trp to D2G FRET signal, Test: 1.239 and 1.271
D59C MelBSt; D59C MelBSt mutant H+, Time 1.7
  Trp to D2G FRET signal, Test: 1.251 and 1.2854
D59C MelBSt; D59C MelBSt mutant H+, Time 1.71667
  Trp to D2G FRET signal, Test: 1.228 and 1.2851
D59C MelBSt; D59C MelBSt mutant H+, Time 1.73333
  Trp to D2G FRET signal, Test: 1.233 and 1.277
D59C MelBSt; D59C MelBSt mutant H+, Time 1.75
  Trp to D2G FRET signal, Test: 1.255 and 1.269
D59C MelBSt; D59C MelBSt mutant H+, Time 1.76667
  Trp to D2G FRET signal, Test: 1.25 and 1.265
D59C MelBSt; D59C MelBSt mutant H+, Time 1.78333
  Trp to D2G FRET signal, Test: 1.239 and 1.277
D59C MelBSt; D59C MelBSt mutant Li+, Time 1.58333
  Trp to D2G FRET signal, Test: 1.183 and 1.18 and 1.353
D59C MelBSt; D59C MelBSt mutant Li+, Time 1.6
  Trp to D2G FRET signal, Test: 1.194 and 1.191 and 1.312
D59C MelBSt; D59C MelBSt mutant Li+, Time 1.61667
  Trp to D2G FRET signal, Test: 1.182 and 1.19 and 1.349
D59C MelBSt; D59C MelBSt mutant Li+, Time 1.63333
  Trp to D2G FRET signal, Test: 1.194 and 1.172 and 1.325
D59C MelBSt; D59C MelBSt mutant Li+, Time 1.65
  Trp to D2G FRET signal, Test: 1.192 and 1.191 and 1.377
D59C MelBSt; D59C MelBSt mutant Li+, Time 1.66667
  Trp to D2G FRET signal, Test: 1.194 and 1.178 and 1.324
D59C MelBSt; D59C MelBSt mutant Li+, Time 1.68333
  Trp to D2G FRET signal, Test: 1.1972 and 1.188 and 1.334
D59C MelBSt; D59C MelBSt mutant Li+, Time 1.7
  Trp to D2G FRET signal, Test: 1.181 and 1.193 and 1.331
D59C MelBSt; D59C MelBSt mutant Li+, Time 1.71667
  Trp to D2G FRET signal, Test: 1.193 and 1.183 and 1.334
D59C MelBSt; D59C MelBSt mutant Li+, Time 1.73333
  Trp to D2G FRET signal, Test: 1.188 and 1.175 and 1.3208
D59C MelBSt; D59C MelBSt mutant Li+, Time 1.75
  Trp to D2G FRET signal, Test: 1.1972 and 1.183 and 1.3266
D59C MelBSt; D59C MelBSt mutant Li+, Time 1.76667
  Trp to D2G FRET signal, Test: 1.189 and 1.172 and 1.31
D59C MelBSt; D59C MelBSt mutant Na+, Time 1.58333
  Trp to D2G FRET signal, Test: 1.29 and 1.292 and 1.375
D59C MelBSt; D59C MelBSt mutant Na+, Time 1.6
  Trp to D2G FRET signal, Test: 1.287 and 1.293 and 1.38
D59C MelBSt; D59C MelBSt mutant Na+, Time 1.61667
  Trp to D2G FRET signal, Test: 1.293 and 1.2915 and 1.362
D59C MelBSt; D59C MelBSt mutant Na+, Time 1.63333
  Trp to D2G FRET signal, Test: 1.299 and 1.278 and 1.358
D59C MelBSt; D59C MelBSt mutant Na+, Time 1.65
  Trp to D2G FRET signal, Test: 1.272 and 1.269 and 1.372
D59C MelBSt; D59C MelBSt mutant Na+, Time 1.66667
  Trp to D2G FRET signal, Test: 1.295 and 1.266 and 1.37
D59C MelBSt; D59C MelBSt mutant Na+, Time 1.68333
  Trp to D2G FRET signal, Test: 1.287 and 1.289 and 1.378
D59C MelBSt; D59C MelBSt mutant Na+, Time 1.7
  Trp to D2G FRET signal, Test: 1.301 and 1.273 and 1.365
D59C MelBSt; D59C MelBSt mutant Na+, Time 1.71667
  Trp to D2G FRET signal, Test: 1.2912 and 1.279 and 1.361
D59C MelBSt; D59C MelBSt mutant Na+, Time 1.73333
  Trp to D2G FRET signal, Test: 1.293 and 1.29 and 1.3441
D59C MelBSt; D59C MelBSt mutant Na+, Time 1.75
  Trp to D2G FRET signal, Test: 1.291 and 1.287 and 1.358
D59C MelBSt; D59C MelBSt mutant Na+, Time 1.76667
  Trp to D2G FRET signal, Test: 1.307 and 1.279 and 1.387
D59C MelBSt; D59C MelBSt mutant Na+, Time 1.78333
  Trp to D2G FRET signal, Test: 1.304 and 1.264
